Measured values taken from patent US9895338B1, “Cobalt-polypyridyl complex for treatment of cancer, a pharmaceutical composition and a kit comprising it” (Macau University of Science and Technology, priority 2016, dated 2018).

What was measured:
HepG2 (liver cancer) = assay: MTT cytotoxicity assay, HepG2; assay type: cell-based; conditions: 72 h
Method: (§1) All prepared cobalt-polypyridyl complexes were dissolved in DMSO at a final concentration of 50 mmol/L and stored at −20° C. before use. Cytotoxicity was assessed by using the 3-(4,5-dimethylthiazol-2-yl)-2,5-diphenyltetrazolium bromide (MTT) (5.0 mg/ml) assay as previously described (Wong, V. K. et al., Cell Death Dis, 2013, 4, e720). Briefly, 4×10^3 cells per well were seeded in 96-well plates before drug treatments. After overnight culture, the cells were then exposed to different concentrations of selected compounds (0.039-100 μmol/L) for 72 h. Cells without drug treatment were used as control. Subsequently, MTT (10 μL) solution was added to each well and incubated at 37° C. for 4 h followed by the addition of 100 μL solubilization buffer (10% SDS in 0.01 mol/L HCl) and overnight incubation. A570 nm was then determined in each well on the next day. The percentage of cell viability was calculated using the following formula: Cell viability (%)=Atreated/Acontrol×100. Data were obtained from three independent experiments. Cells include HeLa cells (cervical cancer), MCF-7 (breast cancer), H1299, H1975, A549 and LLC-1 (lung cancer), HepG2 and Hep3B (liver cancer) and LO2 (normal human hepatocytes).

[1] = tested on: HeLa cells (cervical cancer); assay: MTT cytotoxicity assay, HeLa; assay type: cell-based; conditions: 72 h
Method: as §1

[2] = tested on: cancer cells from different origins; assay: MTT cytotoxicity assay, summary over cancer cell lines; assay type: cell-based; conditions: range over the cancer cell lines of Table 1; read-out: mean IC50 values ranging (anti-cancer potency)
Method: as §1
By contrast, the cytotoxicity was lower in LO2 normal human hepatocytes. […]

H1299 (lung cancer) = assay: MTT cytotoxicity assay, H1299; assay type: cell-based, human; conditions: 72 h
Method: as §1

[3] = tested on: cisplatin-resistant SGC-7901 gastric cancer cells; assay: MTT cytotoxicity, cisplatin-resistant SGC-7901; assay type: cell-based; conditions: for IC50: SGC-7901, MTT, 72 h; for Resistant Factor: SGC-7901, cisplatin-resistant over cisplatin-sensitive
Method: as §1, with “experiments.” for “experiments. Cells include HeLa cells (cervical cancer), MCF-7 (breast cancer), H1299, H1975, A549 and LLC-1 (lung cancer), HepG2 and Hep3B (liver cancer) and LO2 (normal human hepatocytes).”
(§2) All cells were obtained from the American Type Culture Collection (Rockville, Md., USA) unless otherwise specified. Immortalized wild-type and Atg7-deficient mouse embryonic fibroblasts (MEFs) were provided by Professor Masaaki Komatsu (Juntendo University, School of Medicine, Japan). Taxol-resistant types of A549, MCF-7, HCT-8 cancer cells, cisplatin-resistant SGC7901 cancer cells were purchased from KeyGEN BioTECH, China.

[4] = tested on: OV2008/C13 cervical cancer cells; assay: MTT cytotoxicity, OV2008/C13 (cisplatin-resistant); assay type: cell-based; conditions: for Resistant Factor: OV2008/C13 over OV2008
Method: as §1, with “experiments.” for “experiments. Cells include HeLa cells (cervical cancer), MCF-7 (breast cancer), H1299, H1975, A549 and LLC-1 (lung cancer), HepG2 and Hep3B (liver cancer) and LO2 (normal human hepatocytes).”
(§3) Cisplatin-sensitive or -resistant A2780, OV2008 and C13 cancer cells were provided by Prof. Benjamin Tsang (Department of Obstetrics and Gynecology and Department of Cellular and Molecular Medicine, University of Ottawa, Canada). HCT116 p53^+/+ and p53^−/− isogenic human colon cancer cells were provided by Professor Bert Vogelstein (Ludwig Center at Johns Hopkins, Howard Hughes Medical Institute, USA). All media were supplemented with 10% fetal bovine serum and the antibiotics penicillin (50 U/ml) and streptomycin (50 μg/ml; Invitrogen, Paisley, Scotland, UK). All cell cultures were incubated at 37° C. in a 5% humidified CO2 incubator.

[5] = tested on: cisplatin-sensitive SGC-7901 gastric cancer cells; assay: MTT cytotoxicity, cisplatin-sensitive SGC-7901; assay type: cell-based; conditions: SGC-7901, MTT, 72 h
Method: as §1, with “experiments.” for “experiments. Cells include HeLa cells (cervical cancer), MCF-7 (breast cancer), H1299, H1975, A549 and LLC-1 (lung cancer), HepG2 and Hep3B (liver cancer) and LO2 (normal human hepatocytes).”

LLC-1 (lung cancer) = assay: MTT cytotoxicity assay, LLC-1; assay type: cell-based; conditions: LLC-1, MTT, 72 h
Method: as §1

[6] = tested on: OV2008 cervical cancer cells; assay: MTT cytotoxicity, OV2008 (cisplatin-sensitive); assay type: cell-based; conditions: 72 h
Method: as §1, with “experiments.” for “experiments. Cells include HeLa cells (cervical cancer), MCF-7 (breast cancer), H1299, H1975, A549 and LLC-1 (lung cancer), HepG2 and Hep3B (liver cancer) and LO2 (normal human hepatocytes).”
as §3

[7] = tested on: cisplatin-sensitive A2780 ovarian cancer cells; assay: MTT cytotoxicity, cisplatin-sensitive A2780; assay type: cell-based; conditions: 72 h
Method: as §1, with “experiments.” for “experiments. Cells include HeLa cells (cervical cancer), MCF-7 (breast cancer), H1299, H1975, A549 and LLC-1 (lung cancer), HepG2 and Hep3B (liver cancer) and LO2 (normal human hepatocytes).”
as §3

A549 (lung cancer) = assay: MTT cytotoxicity assay, A549; assay type: cell-based; conditions: 72 h
Method: as §1

Hep 3B (liver cancer) = assay: MTT cytotoxicity assay, Hep3B; assay type: cell-based; conditions: 72 h
Method: as §1

[8] = tested on: Taxol-sensitive MCF-7 cancer cells; assay: MTT cytotoxicity, taxol-sensitive MCF-7; assay type: cell-based; conditions: MCF-7, MTT, 72 h
Method: as §1, with “experiments.” for “experiments. Cells include HeLa cells (cervical cancer), MCF-7 (breast cancer), H1299, H1975, A549 and LLC-1 (lung cancer), HepG2 and Hep3B (liver cancer) and LO2 (normal human hepatocytes).”

[9] = tested on: Taxol-sensitive HCT8 cancer cells; assay: MTT cytotoxicity, taxol-sensitive HCT8; assay type: cell-based; conditions: 72 h
Method: as §1, with “experiments.” for “experiments. Cells include HeLa cells (cervical cancer), MCF-7 (breast cancer), H1299, H1975, A549 and LLC-1 (lung cancer), HepG2 and Hep3B (liver cancer) and LO2 (normal human hepatocytes).”

MCF-7 (breast cancer) = assay: MTT cytotoxicity assay, MCF-7; assay type: cell-based; conditions: MCF-7, MTT, 72 h
Method: as §1

[10] = tested on: Taxol-resistant HCT8 cancer cells; assay: MTT cytotoxicity, taxol-resistant HCT8; assay type: cell-based; conditions: for IC50: HCT8, MTT, 72 h; for Resistant Factor: HCT8, IC50 taxol-resistant over IC50 taxol-sensitive
Method: as §1, with “experiments.” for “experiments. Cells include HeLa cells (cervical cancer), MCF-7 (breast cancer), H1299, H1975, A549 and LLC-1 (lung cancer), HepG2 and Hep3B (liver cancer) and LO2 (normal human hepatocytes).”
as §2

[11] = tested on: LO2 (normal human hepatocytes); assay: MTT cytotoxicity assay, LO2; assay type: cell-based; conditions: 72 h
Method: as §1

H1975 (lung cancer) = assay: MTT cytotoxicity assay, H1975; assay type: cell-based; conditions: 72 h
Method: as §1

[12] = tested on: Taxol-resistant MCF-7 cancer cells; assay: MTT cytotoxicity, taxol-resistant MCF-7; assay type: cell-based; conditions: for IC50: MCF-7, MTT, 72 h; for Resistant Factor: MCF-7, IC50 taxol-resistant over IC50 taxol-sensitive
Method: as §1, with “experiments.” for “experiments. Cells include HeLa cells (cervical cancer), MCF-7 (breast cancer), H1299, H1975, A549 and LLC-1 (lung cancer), HepG2 and Hep3B (liver cancer) and LO2 (normal human hepatocytes).”
as §2

[13] = tested on: cisplatin-resistant A2780 ovarian cancer cells; assay: MTT cytotoxicity, cisplatin-resistant A2780; assay type: cell-based; conditions: for IC50: A2780, MTT, 72 h; for Resistant Factor: A2780, cisplatin-resistant over cisplatin-sensitive
Method: as §1, with “experiments.” for “experiments. Cells include HeLa cells (cervical cancer), MCF-7 (breast cancer), H1299, H1975, A549 and LLC-1 (lung cancer), HepG2 and Hep3B (liver cancer) and LO2 (normal human hepatocytes).”
as §3

Atg7 wild-type MEFs = assay: Cytotoxic effect in Atg7 wild-type MEFs; assay type: cell-based, mouse
From the text: as §2
(§4) In addition, the protein conversion from LC3-I to LC3-II is the marker for autophagy induction. […] In order to further confirm that the cobalt complex-induced autophagy leads to its anti-cancer effect, the cytotoxic effect of the cobalt-polypyridyl complex of Formula (IV) has been examined in both autophagy-wild type and -deficient cells respectively. Therefore, both autophagy related gene (Atg) 7 wild-type and deficient mouse embryonic fibroblasts (MEFs) (Wong, V. K. et al., Cell Death Dis, 2013, 4, e720) were used in this study. […] In view of the fact that the cobalt-polypyridyl complex of Formula (IV)-mediated cytotoxicity was markedly abrogated from the failure of autophagy induction in Atg7−/− deficient cells, these findings implicated that the cobalt-polypyridyl complex of Formula (IV)-induced autophagy would ultimately led to autophagic cell death.

[14] = tested on: Taxol-sensitive A549 cancer cells; assay: MTT cytotoxicity, taxol-sensitive A549; assay type: cell-based; conditions: 72 h
Method: as §1, with “experiments.” for “experiments. Cells include HeLa cells (cervical cancer), MCF-7 (breast cancer), H1299, H1975, A549 and LLC-1 (lung cancer), HepG2 and Hep3B (liver cancer) and LO2 (normal human hepatocytes).”

[15] = tested on: Taxol-resistant A549 cancer cells; assay: MTT cytotoxicity, taxol-resistant A549; assay type: cell-based
Method: as §1, with “experiments.” for “experiments. Cells include HeLa cells (cervical cancer), MCF-7 (breast cancer), H1299, H1975, A549 and LLC-1 (lung cancer), HepG2 and Hep3B (liver cancer) and LO2 (normal human hepatocytes).”
as §2

[16] = tested on: HCT116 p53^+/+ colon cancer cells; assay: MTT cytotoxicity, HCT116 p53+/+; assay type: cell-based, human; conditions: 72 h
Method: as §1, with “experiments.” for “experiments. Cells include HeLa cells (cervical cancer), MCF-7 (breast cancer), H1299, H1975, A549 and LLC-1 (lung cancer), HepG2 and Hep3B (liver cancer) and LO2 (normal human hepatocytes).”
as §3

[17] = tested on: HCT116 p53^−/− colon cancer cells; assay: MTT cytotoxicity, HCT116 p53-/-; assay type: cell-based, human
Method: as §1, with “experiments.” for “experiments. Cells include HeLa cells (cervical cancer), MCF-7 (breast cancer), H1299, H1975, A549 and LLC-1 (lung cancer), HepG2 and Hep3B (liver cancer) and LO2 (normal human hepatocytes).”
as §3

Atg7 deficient MEFs = assay: Cytotoxic effect in Atg7 deficient MEFs; assay type: cell-based, mouse
From the text: as §2, §4

Molecule	IC50 (HepG2 (liver cancer)) [µM]	IC50 [1] [µM]	IC50 (H1299 (lung cancer)) [µM]	IC50 [3] [µM]	Resistant Factor [3]	Resistant Factor [4]	IC50 [5] [µM]	IC50 (LLC-1 (lung cancer)) [µM]	IC50 [6] [µM]	IC50 [7] [µM]	IC50 (A549 (lung cancer)) [µM]	IC50 (Hep 3B (liver cancer)) [µM]	IC50 [8] [µM]	IC50 [9] [µM]	IC50 (MCF-7 (breast cancer)) [µM]	IC50 [10] [µM]	Resistant Factor [10]	IC50 [11] [µM]	IC50 (H1975 (lung cancer)) [µM]	IC50 [12] [µM]	other results
CCCCCCCCCc1ccnc(-c2cc(CCCCCCCCC)ccn2)c1.CCCCCCCCCc1ccnc(-c2cc(CCCCCCCCC)ccn2)c1.CCCCCCCCCc1ccnc(-c2cc(CCCCCCCCC)ccn2)c1.F[P-](F)(F)(F)(F)F.F[P-](F)(F)(F)(F)F.F[P-](F)(F)(F)(F)F.[Co+3] [complex (VIII), [Co^III(4,4′-(C9H19)2-Bpy)3](PF6)3]	26	21.3	26.7	35.9	0.99	1.87	36.3	10.4	49.4	30.2	82.8	54.1	28.5	56.4	37.4	41.1	0.73	40.2	24.2	11.1	IC50 [2]: 10.4 to 82.8 µM; Resistant Factor [12]: 0.39; IC50 [13]: 29.1 µM; Resistant Factor [13]: 0.96
[Co^II(4,4′-Me2-Bpy)3](PF6)2 [complex (III)]	7.39	10.1	3.43	17.6	1.50	2.21	11.7	2.79	7.06	11.9	9.45	4.06	4.62	3.13	15.4	1.16	0.37	13.5	15.4	2.51	IC50 (Atg7 wild-type MEFs): 4.84 µM; IC50 ([4]; OV2008/C13, MTT, 72 h): 15.6 µM; IC50 [14]: 9.59 µM; IC50 ([15]; A549, MTT, 72 h): 2370 nM; Resistant Factor ([15]; A549, IC50 taxol-resistant over IC50 taxol-sensitive): 0.25; IC50 [16]: 17.1 µM; Resistant Factor ([17]; HCT116 p53^−/− over HCT116 p53^+/+): 0.52; IC50 ([17]; MTT, 72 h): 8.89 µM; IC50 (Atg7 deficient MEFs): 14 µM; Resistant Factor [12]: 0.54; IC50 [13]: 11.2 µM; Resistant Factor [13]: 0.94
